The structures appear in SMILES notation.

For one assay, the target named is D(2) dopamine receptor (Rattus norvegicus, UniProt P61169).
In assay [1] the target is 5-hydroxytryptamine receptor 2A (Rattus norvegicus, UniProt P14842).
Sequence of 5-hydroxytryptamine receptor 2A (P14842 whole entry): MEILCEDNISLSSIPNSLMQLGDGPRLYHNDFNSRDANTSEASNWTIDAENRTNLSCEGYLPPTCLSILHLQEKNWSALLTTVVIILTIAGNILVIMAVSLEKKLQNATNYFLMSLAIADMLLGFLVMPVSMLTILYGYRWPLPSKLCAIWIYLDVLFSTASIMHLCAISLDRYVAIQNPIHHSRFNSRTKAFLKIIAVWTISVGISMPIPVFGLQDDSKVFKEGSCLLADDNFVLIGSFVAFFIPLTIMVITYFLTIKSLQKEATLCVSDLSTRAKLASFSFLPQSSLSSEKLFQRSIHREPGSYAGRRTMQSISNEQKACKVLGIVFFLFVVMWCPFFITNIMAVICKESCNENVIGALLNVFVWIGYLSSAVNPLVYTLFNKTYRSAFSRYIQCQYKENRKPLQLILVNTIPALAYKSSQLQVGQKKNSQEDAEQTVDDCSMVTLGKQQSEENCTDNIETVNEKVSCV

Sequence of D(2) dopamine receptor (P61169 whole entry): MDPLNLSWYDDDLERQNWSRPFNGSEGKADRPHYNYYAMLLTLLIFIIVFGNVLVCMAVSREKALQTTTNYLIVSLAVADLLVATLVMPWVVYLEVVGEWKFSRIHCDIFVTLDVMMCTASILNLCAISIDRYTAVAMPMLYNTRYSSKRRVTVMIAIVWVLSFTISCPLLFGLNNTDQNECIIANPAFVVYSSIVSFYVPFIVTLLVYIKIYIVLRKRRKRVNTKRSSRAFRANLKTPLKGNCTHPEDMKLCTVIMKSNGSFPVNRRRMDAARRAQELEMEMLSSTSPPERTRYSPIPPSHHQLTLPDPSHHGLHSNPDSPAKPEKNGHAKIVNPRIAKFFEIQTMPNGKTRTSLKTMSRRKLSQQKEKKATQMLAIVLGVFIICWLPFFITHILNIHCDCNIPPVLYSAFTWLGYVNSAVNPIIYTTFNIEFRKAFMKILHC

As usually defined, the Ki is the dissociation constant of the complex between target and ligand, obtained from inhibition or displacement. Low values mean tighter binding, high ones weaker binding. As to `Cc1[nH]cnc1CC1CCc2c(C)c3ccccc3n2C1=O` (configuration not stated) [CAS_125368], the inhibition constant Ki (on D(2) dopamine receptor; in assay [1]) was 0.01 nM each time.

Values taken from BindingDB's records for PubMed 8496821 (Fujisawa Pharmaceutical, 1993).
